Entries after “also recorded” stand apart in the source; their conditions may differ.
Tests used:
Stat3 = assay: TEL-Stat3 interaction, immunoprecipitation from nuclear extracts; assay type: binding
Experimental: Since the TEL DNA-binding domain is not required for repression of Stat3 activity, this Example tests the possibility that TEL interacts directly with Stat3. Extracts from nuclear-enriched fractions were prepared from control or OSM-stimulated A375 cells. […] Endogenous TEL was present in Stat3 immunoprecipitates and the levels of TEL associating with Stat3 increased in OSM-treated compared to control-treated nuclear extracts. Conversely, Stat3 is present in a TEL-containing complex, pulled down through an immobilized GGM-containing oligonucleotide, which is a binding site for TEL.

[1] = system: Stat3 transcriptional activity; assay: Stat3 luciferase reporter assay with transfected TEL or TEL mutants; assay type: cell-based
Experimental: In brief, TEL- or control, pcDNA3.1-transfected Stat3ERA375 cells, treated with 4HT were cultured in the presence or absence of Trichostatin A (TSA; 250 nM), a general HDAC inhibitor, essentially as described above.
Briefly, Stat3-ER-A375 cells and HEK 293 cells were transfected with the different TEL mutants, a Stat3 reporter plasmid and a Renilla plasmid.

[2] = system: Stat3 transcriptional activity; assay: APRE-driven luciferase reporter assay; assay type: cell-based; conditions: for Stat3-dependent transcription of luciferase, increase over control: TEL expression reduced by siRNA
Excerpt: Luciferase assays are used to verify that the Stat3-ER construct is transcriptionally active. For this purpose, a luciferase reporter gene driven by the acute-phase response element (APRE) of the alpha 2-macroglobulin gene, a target for Stat1 and Stat3, was used.
Cells (2×10^6 cells/6 well dish) were transfected with a reporter plasmid containing four copies of acute phase responsible element (APRE) upstream of the minimal junB promoter linked to the luciferase gene (T Hirano, EMBO Journal, 1996, 15, 3651-3658), together with the internal control plasmid pRL-SV40 from Promega (Madison, Wis.). Twenty-four hours after the transfection, cells were either left unstimulated or stimulated with OSM (PeproTechEC, London, United Kingdom), 4-hydroxytamoxifen (4HT; Sigma, St. Louis, Mo.) or a combination of 4HT/OSM for 24 hours. The preparation of cell extracts and measurement of luciferase activities were carried out using the Dual-Luciferase reporter assay system from Promega (Madison, Wis.) in an Autolumat LB 953 (Berthold Technologies, Wildbad, Germany). Changes in firefly luciferase activity were expressed relative to Renilla luciferase activity in the same sample.

TEL [3] = assay: TEL expression in human cancer cell lines; assay type: cell-based
Excerpt: TEL is usually expressed as two protein isoforms corresponding to initiation of TEL mRNA translation at ATG codon 1 and 43 (TEL and TEL43). […] To ascertain if TEL is a natural target of Stat3, we examined its expression in human cancer cell lines in response to OSM or IL-6. […] However, TEL expression was unchanged in other cell lines, including the prostate cancer cells PC3 and LNCaP and MDA-MB-468 breast cancer cells, even though it was expected that Stat3 is activated in each of these cell lines by IL-6/OSM treatment.

C/EBPdelta mRNA = assay: C/EBPdelta expression (quantitative PCR); assay type: cell-based
Experimental: A LacZ siRNA was used as control. The designed RNA oligonucleotides were ‘blasted’ against the GENBANK/EMBL databank to ensure gene specificity. The RNA oligonucleotides were obtained commercially. Transfection with expression vectors was carried out 1 day after the siRNA transfection using Effectene.

[4] = system: Stat3-ER-expressing A375 cells; assay: Cell proliferation after siRNA transfection; assay type: cell-based
Excerpt: This Example follows cell proliferation of Stat3-ER-expressing A375 cells treated with 4HT or a combination of 4HT and OSM, then cell proliferation in the absence or in the presence of siRNA to C/EBPd.
The following 21-mer oligoribonucleotide pairs were used:
This Example follows cell proliferation of Stat3-ER-expressing A375 cells treated with 4HT or a combination of 4HT and OSM, and in the absence or in the presence of siRNA to TEL.

[5] = biological target: Signal transducer and activator of transcription 3 (Stat3) (UniProt P40763); assay: cell-based or functional assay
Sequence of Signal transducer and activator of transcription 3 (Stat3) (P40763 2-770 limits assumed): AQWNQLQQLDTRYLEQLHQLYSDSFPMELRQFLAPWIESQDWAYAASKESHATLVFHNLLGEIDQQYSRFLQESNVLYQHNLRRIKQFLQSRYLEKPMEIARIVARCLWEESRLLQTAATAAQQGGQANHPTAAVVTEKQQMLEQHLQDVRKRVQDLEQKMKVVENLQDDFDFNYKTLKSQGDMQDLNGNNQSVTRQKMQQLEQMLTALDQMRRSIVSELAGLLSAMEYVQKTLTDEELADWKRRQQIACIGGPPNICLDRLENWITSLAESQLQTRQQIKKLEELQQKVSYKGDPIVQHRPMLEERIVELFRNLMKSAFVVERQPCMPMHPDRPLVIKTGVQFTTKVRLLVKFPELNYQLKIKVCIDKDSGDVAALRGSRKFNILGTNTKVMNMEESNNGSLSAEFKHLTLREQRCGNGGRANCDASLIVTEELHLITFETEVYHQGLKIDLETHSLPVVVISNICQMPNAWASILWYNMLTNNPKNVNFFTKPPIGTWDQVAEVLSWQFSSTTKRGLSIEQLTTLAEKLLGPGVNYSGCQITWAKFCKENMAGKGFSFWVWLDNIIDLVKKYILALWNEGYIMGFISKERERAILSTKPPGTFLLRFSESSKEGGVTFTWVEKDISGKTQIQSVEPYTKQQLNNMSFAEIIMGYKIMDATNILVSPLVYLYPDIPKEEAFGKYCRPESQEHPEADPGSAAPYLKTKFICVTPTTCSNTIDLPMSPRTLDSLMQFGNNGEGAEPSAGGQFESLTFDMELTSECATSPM

TEL [6] = assay: TEL protein level by Western blotting; assay type: cell-based; conditions: 4HT or 4HT/OSM treated; relative to control LacZ siRNA
Experimental: Protein analysis was carried out by Western blotting. In brief, cells were harvested in NP40 extraction buffer (50 mM Tris (pH 7.5), 1 mM EGTA, 5 mM EDTA, 120 mM NaCl, 1% NP40, 2 mM sodium orthovanadate, 50 mM sodium fluoride, 20 mM ? -glycerophosphate, 10 μg/ml leupeptin, 10 μg/ml aprotinin, and 0.5 mM phenylmethylsulfonyl fluoride) for 5 min on ice. The lysates were clarified by centrifugation and protein concentrations were determined using the Bio-Rad protein assay reagent (Bio-Rad Laboratories Gmbh, Munich, Germany). For immunoprecipitaton, equal amounts of proteins were incubated with Stat3 (C-20) from Santa Cruz Biotechnology (Santa Cruz, Calif.) for 1 hr. Following SDS-polyacrylamide gel eletrophoresis (SDS-PAGE), proteins were blotted onto polyvinylidene difluoride membranes (Boehringer Mannheim, Mannheim, Germany). After blocking with 10% horse serum (Life Technologies, Inc.) in 50 mM Tris pH 7.5, 150 mM NaCl, 0.05% Tween 20, filters were probed with specific antibodies; c-TEL, Stat3 (C-20) from Santa Cruz Biotechnology (Santa Cruz, Calif.), phospho-Stat3 (Tyr 705) from Cell Signaling Technology (Beverly, Mass.). Proteins were visualized with peroxidase-coupled secondary antibodies using the enhanced chemiluminescence detection system (Amersham Pharmacia Biotech, Little Chalfont, United Kingdom).

## TEL: ets variant gene 6 (TEL oncogene) product, overexpressed by transfection
Stat3
  interaction with Stat3: still interact with Stat3
[1]; in response to OSM, Stat3ER A375 cells and HEK293 cells
  reduction in Stat3 activity by overexpression of TEL: > 70%

## interleukin 6 [IL-6]
[2]; Stat3-ER-expressing A375 cells
  cooperative effect with 4HT on luciferase activity: same cooperative effect with 4HT
TEL [3]; PC3, LNCaP prostate cancer cells and MDA-MB-468 breast cancer cells
  TEL expression: unchanged
TEL [3]; T47D and SKBr-3 breast cancer cells, DU145 prostate carcinoma cells, HepG2 hepatoma-derived cells
  TEL expression: significantly increased

## CC(/C=C/C(=O)NO)=C\[C@@H](C)C(=O)c1ccc(N(C)C)cc1 [TSA, Trichostatin A, reference compound]
[1]; TSA 250 nM, TEL-transfected 4HT-stimulated Stat3ERA375 cells
  effect on repression of Stat3 activity by TEL: prevented the repression of Stat3 activity by TEL
[1]; TSA 250 nM, pcDNA3.1-transfected cells, 4HT
  effect on Stat3 mediated transcriptional activity: had no effects

## C/EBPdelta siRNA: siRNA duplex nt 844-864, SEQ ID NO:2 and SEQ ID NO:3 (chain 1 GCAGCUGCCCAGCCCGCCCTT; chain 2 GGGCGGGCUGGGCAGCUGTT; combined DNA/RNA strands, DNA positions not given here, further chemistry not given here)
C/EBPdelta mRNA
  C/EBPdelta expression in the presence of siRNA: significantly reduced expression
[4]; about 40-45% with control siRNA
  inhibition of cell proliferation in the presence of siRNA: about 25%
[4]; average of three independent experiments, versus control siRNA
  reduction of the inhibition of A375 cell proliferation: about 40%

## TEL/Etv6 (ets variant gene 6; TEL oncogene) (from UniProt P41212 1-452)
[5]
  Stat3 activity (APRE luciferase reporter) in response to OSM on overexpression of TEL: > 70 % reduction

## TEL siRNA: siRNA nt 540-560, SEQ ID NO:4 and SEQ ID NO:5 (chain 1 CCCUCCCACCAUUGAACUGTT; chain 2 CAGUUCAAUGGUGGGAGGGTT; combined DNA/RNA strands, DNA positions not given here, further chemistry not given here)
TEL [6]
  TEL expression in the presence of TEL siRNA: largely prevented; also recorded: strongly decreased
[2]; induced by 4HT
  Stat3-dependent transcription of luciferase, increase over control: ~16 fold
[2]; induced by OSM
  Stat3-dependent transcription of luciferase, increase over control: ~18 fold
[4]; 4HT and OSM treated Stat3ER A375 cells
  anti-proliferative effects of Stat3 versus control LacZ siRNA treated cultures: stronger
[4]; about 28% without TEL siRNA
  Stat3-mediated inhibition of A375 cell proliferation in the presence of TEL siRNA: about 40%

B1: TEL delta 442-452: TEL deletion mutant (protein)
chain: MSETPAQCSIKQERISYTPPESPVPSYASSTPLHVPVPRALRMEEDSIRLPAHLRLQPIYWSRDDVAQWLKWAENEFSLRPIDSNTFEMNGKALLLLTKEDFRYRSPHSGDVLYELLQHILKQRKPRILFSPFFHPGNSIHTQPEVILHQNHEEDNCVQRTPRPSVDNVHHNPPTIELLHRSRSPITTNHRPSPDPEQRPLRSPLDNMIRRLSPAERAQGPRPHQENNHQESYPLSVSPMENNHCPASSESHPKPSSPRQESTRVIQLMPSPIMHPLILNPRHSVDFKQSRLSEDGLHREGKPINLSHREDLAYMNHIMVSVSPPEEHAMPIGRIADCRLLWDYVYQLLSDSRYENFIRWEDKESKIFRIVDPNGLARLWGNHKNRTNMTYEKMSRALRHYYKLNIIRKEPGQRLLFRFMKTPDEIMSGRTDRLEHLESQE
[1]; Stat3-ER-A375 cells and HEK 293 cells, 24 h
  repression of 4HT- or OSM-induced Stat3 transcriptional activity: is not able to repress Stat3 activity

From patent publication US20080064027A1, “TEL/Etv6-mediated inhibition of cell proliferation” (priority 2002, published 2008)
